Measurements reported in US4839376A, “Pyrazoline derivatives for treating cerebrovascular diseases” (Mitsui Toatsu Chemicals, Inc., priority 1987, dated 1989).
Like-named read-outs stand apart in the source and are kept apart here.

Assays:
[1] = system: ischemic cerebral edemas of rats caused by occlusion of the middle cerebral artery; test: Action upon ischemic cerebral edemas of rats caused by occlusion of the middle cerebral artery; format: in vivo, Wistar rats; settings: Rattus norvegicus, ip, 24 h, read-out: Cerebral Edema Inhibition Rate; for inhibition in vivo at 30 mg/kg: dose 30 mg/Kg i.p.; for inhibition in vivo at 25 mg/kg: dose 25 mg/Kg i.p.
Description: (Action upon ischemic cerebral edemas of rats caused by occlusion of the middle cerebral artery)
The compound being tested was suspended in 0.5% aqueous solution of CMC, and this suspension was intraperitoneally injected to each rat immediately after occlusion, and 8 hours and 16 hours later (a total of three times). Twenty-four hours after occlusion, each of the treated rats was sacrificed, the brain was excised, and the water content of hemispheres were determined by weighing the hemispheres before and after drying at 110° C. to the constant weight. On the other hand, the rats of the control group were subjected to arterial occlusion in the same way as above, followed by intraperitoneal injection of physiological saline three times a day. The cerebral edema inhibition rate of each compound was calculated from the following equation: [formula] where CL and CR represent the water contents of left and right hemispheres of the control group and SL and SR the water contents of left and right hemispheres of the treated group.

[2] = Acute toxicity (LD50) by intraperitoneal injection to mice; settings: mouse, in vivo, ip, mortality 48 hours after injection
Description: Acute toxicity (LD50) was determined by intraperitoneal injection of a compound being tested to mice and by calculation from the mortality 48 hours after injection by the usual method.

[3] = system: cerebral infarction of rats caused by occlusion of the middle cerebral artery; test: Action against cerebral infarction of rats caused by occlusion of the middle cerebral artery (TTC stain, planimeter); format: in vivo; settings: i.p. three times, 24 h after occlusion
Description: (Action against cerebral infarction of rats caused by occlusion of the middle cerebral artery)
Cerebral infarction of rats caused by occlusion of the middle cerebral artery was measured by the method of Tamura et al. (Japan Clinics, 43, 185, 1985). The middle cerebral artery of rats was artificially occluded, the compound being tested was suspended in 0.5% aqueous solution of CMC, and this suspension was intraperitoneally injected to each rat immediately after occlusion, and 8 hours and 16 hours later (a total of three times). Twenty-four hours after occlusion, each of the treated rats was sacrificed, and the brain was excised, stained with TTC and cut into equal six parts from top to bottom. The cross-sections were photographed, and the ratio of infarcted areas to the whole brain was measured by means of a planimeter.

[4] = cited from earlier work; for protection of the brain from cerebral ischemia: literature
[5] = three times (immediately, 8 and 16 h after occlusion)
[6] = control group 11.58 ± 0.81, **1% significant difference
[7] = control group 11.58 ± 0.81, *5% significant difference
[8] = dose 50 mg/Kg i.p., three times (immediately, 8 and 16 h after occlusion)

Compound	LD50 at 48 h [2]	inhibition in vivo at 30 mg/kg [1, 5]	inhibition in vivo at 25 mg/kg [1, 5]	other results
O=C([O-])N1N=CCC1c1ccccc1.[Na+] (stereo not drawn)	710 mg/kg	–	–	inhibition in vivo at 50 mg/kg [1]: 18.6%
O=C(c1cccnc1)N1N=CCC1c1ccccc1 (stereo not drawn) [Compound 1, 1-(3-Pyridylcarbonyl)-5-phenyl-2-pyrazoline]	600 mg/kg	36%	–	Rate of Infarcted Area [3, 6]: 5.03 ± 0.49%
O=C(c1ccncc1)N1N=CCC1c1ccccc1 (stereo not drawn) [Compound 2, 1-(4-Pyridylcarbonyl)-5-phenyl-2-pyrazoline]	630 mg/kg	30.5%	–	–
O=C(c1ccccn1)N1N=CCC1c1ccccc1 (stereo not drawn) [Compound 3, 1-(2-Pyridylcarbonyl)-5-phenyl-2-pyrazoline]	560 mg/kg	15.7%	–	–
COc1ccccc1C1CC=NN1C(=O)c1cccnc1 (stereo not drawn) [Compound 4, 1-(3-Pyridylcarbonyl)-5-(2-methoxyphenyl)-2-pyrazoline]	610 mg/kg	28.3%	–	–
COc1cccc(C2CC=NN2C(=O)c2cccnc2)c1 (stereo not drawn) [Compound 5, 1-(3-Pyridylcarbonyl)-5-(3-methoxyphenyl)-2-pyrazoline]	630 mg/kg	20.7%	–	–
COc1ccc(C2CC=NN2C(=O)c2cccnc2)cc1 (stereo not drawn) [Compound 6, 1-(3-Pyridylcarbonyl)-5-(4-methoxyphenyl)-2-pyrazoline]	830 mg/kg	19.3%	–	–
O=C(c1cccnc1)N1N=CCC1c1ccco1 (stereo not drawn) [Compound 7, 1-(3-Pyridylcarbonyl)-5-(2-furyl)-2-pyrazoline]	1100 mg/kg	31.2%	–	Rate of Infarcted Area [3, 7]: 6.96 ± 0.79%
O=C(c1cnccn1)N1N=CCC1c1ccccc1 (stereo not drawn) [Compound 8, 1-Pyrazylcarbonyl-5-phenyl-2-pyrazoline]	710 mg/kg	–	33%	–
O=C(c1cccnc1)N1N=CCC1c1ccccc1F (stereo not drawn) [Compound 9, 1-(3-Pyridylcarbonyl)-5-(2-fluorophenyl)-2-pyrazoline]	830 mg/kg	–	29.1%	–
Cc1ccccc1C1CC=NN1C(=O)c1cccnc1 (stereo not drawn) [Compound 10, 1-(3-Pyridylcarbonyl)-5-(2-methylphenyl)-2-pyrazoline]	610 mg/kg	–	31.3%	–
O=C(c1cccnc1)N1N=CCC1c1ccc(Cl)cc1 (stereo not drawn) [Compound 11, 1-(3-Pyridylcarbonyl)-5-(4-chlorophenyl)-2-pyrazoline]	710 mg/kg	–	29.3%	–
CC1CC=NN1C(=O)c1cccnc1 (stereo not drawn) [Compound 17, 1-(3-Pyridylcarbonyl)-5-methyl-2-pyrazoline]	850 mg/kg	–	34%	Rate of Infarcted Area [3, 7]: 8.01 ± 0.54%
CC(C)C1CC=NN1C(=O)c1cccnc1 (stereo not drawn) [Compound 22, 1-(3-Pyridylcarbonyl)-5-isopropyl-2-pyrazoline]	830 mg/kg	–	–	inhibition in vivo at 50 mg/kg [1, 8]: 27.2%
CCOC(=O)N1N=CCC1c1ccccc1 (stereo not drawn) [Compound 25, 1-Ethoxycarbonyl-5-phenyl-2-pyrazoline]	830 mg/kg	–	–	inhibition in vivo at 50 mg/kg [1, 8]: 27.2%
CCOC(=O)N1N=CCC1C (stereo not drawn) [Compound 28, 1-Ethoxycarbonyl-5-methyl-2-pyrazoline]	–	–	–	Rate of Infarcted Area [3, 6]: 5.79 ± 0.43%
CCC1CC=NN1C(=O)OC (stereo not drawn) [Compound 30, 1-Methoxycarbonyl-5-ethyl-2-pyrazoline]	740 mg/kg	–	29.1%	–
C1=NNC(c2ccccc2)C1 (stereo not drawn) [Compound 31, 5-Phenyl-2-pyrazoline]	540 mg/kg	–	32%	Rate of Infarcted Area [3, 7]: 7.93 ± 0.56%
Clc1ccccc1C1CC=NN1 (stereo not drawn) [Compound 34, 5-(2-Chlorophenyl)-2-pyrazoline]	600 mg/kg	–	29.1%	Rate of Infarcted Area [3, 7]: 8.56 ± 0.71%

Compound	LD50 at 48 h [2]	inhibition in vivo at 30 mg/kg [1, 5]	inhibition in vivo at 25 mg/kg [1, 5]	other results
Cc1ccccc1C1CC=NN1 (stereo not drawn) [Compound 37, 5-(2-Methylphenyl)-2-pyrazoline]	680 mg/kg	–	30.4%	–
COc1ccccc1C1CC=NN1 (stereo not drawn) [Compound 40, 5-(2-Methoxylphenyl)-2-pyrazoline]	560 mg/kg	–	25.7%	–
Fc1cccc(C2CC=NN2)c1 (stereo not drawn) [Compound 42, 5-(3-Fluorophenyl)-2-pyrazoline]	710 mg/kg	–	23.9%	–
FC(F)(F)c1cccc(C2CC=NN2)c1 (stereo not drawn) [Compound 45, 5-(3-Trifluoromethylphenyl)-2-pyrazoline]	630 mg/kg	–	30.4%	–
C1=NNC(c2ccncc2)C1 (stereo not drawn) [Compound 52, 5-(4-Pyridyl)-2-pyrazoline]	540 mg/kg	–	21.8%	–
C1=NNC(c2cccnc2)C1 (stereo not drawn) [Compound 53, 5-(3-Pyridyl)-2-pyrazoline]	600 mg/kg	–	16.7%	–
CC(=O)N1N=CCC1c1ccccc1 (stereo not drawn) [Compound 56, -Acetyl-5-phenyl-2-pyrazoline]	1100 mg/kg	–	15.9%	–
O=C(c1ccccc1)N1N=CCC1c1ccccc1 (stereo not drawn) [Compound 59, 1-Benzoyl-5-phenyl-2-pyrazoline]	600 mg/kg	21.7%	–	Rate of Infarcted Area [3, 7]: 7.69 ± 0.67%
O=C(c1ccc(C(F)(F)F)cc1)N1N=CCC1c1ccccc1 (stereo not drawn) [Compound 60, 1-(4-Trifluoromethylbenzoyl)-5-phenyl-2-pyrazoline]	810 mg/kg	20.9%	–	–
O=C(CN1N=CCC1c1ccccc1)c1ccccc1 (stereo not drawn) [Compound 61, 1-Benzoylmethyl-5-phenyl-2-pyrazoline]	540 mg/kg	16.7%	–	–
O=C(C1CCCCC1)N1N=CCC1c1ccccc1 (stereo not drawn) [Compound 62, 1-Cyclohexylcarbonyl-5-phenyl-2-pyrazoline]	630 mg/kg	15.3%	–	–
O=C(c1ccco1)N1N=CCC1c1ccccc1 (stereo not drawn) [Compound 63, 1-(2-Furylcarbonyl)-5-phenyl-2-pyrazoline]	710 mg/kg	26.1%	–	–
O=C(c1cccs1)N1N=CCC1c1ccccc1 (stereo not drawn) [Compound 64, 1-(2-Thienylcarbonyl)-5-phenyl-2-pyrazoline]	830 mg/kg	28.5%	–	–
O=C(Nc1cccnc1)N1N=CCC1c1ccccc1 (stereo not drawn) [Compound 65, 1-[N-(3-pyridyl)carbamoyl]-5-phenyl-2-pyrazoline]	630 mg/kg	–	27.1%	–
S=C(Nc1cccnc1)N1N=CCC1c1ccccc1 (stereo not drawn) [Compound 66, 1-[N-(3-pyridyl)thiocarbamoyl]-5-phenyl-2-pyrazoline]	560 mg/kg	–	18.9%	–
CCN(CC)Cc1nccn1-c1ccc([N+](=O)[O-])cc1C(=O)c1ccccc1Cl [Nizofenone]	–	–	–	action to inhibit cerebral edemas ([4]; Japan Clinics, 43, 185, 1985): no action to inhibit cerebral edemas; consciousness troubles ([4]; Japan Clinics, 43, 185, 1985): helps alleviate consciousness troubles; protection of the brain from cerebral ischemia [4]: useful to protect the brain from cerebral ischemia
CCC1(c2ccccc2)C(=O)NC(=O)N(C)C1=O (stereo not drawn) [mefobarbital]	–	–	–	protection of the brain from cerebral ischemia [4]: protect the brain from cerebral ischemia
CCCC(C)C1(CC)C(=O)NC(=O)NC1=O (stereo not drawn) [pentobarbital]	–	–	–	protection of the brain from cerebral ischemia [4]: protect the brain from cerebral ischemia
